Laboratory results as given in US12617777B2, “GPR84 antagonists and uses thereof” (Liminal BioSciences Limited, priority 2021, dated 2026).

Target: T1, human GPR84 receptor (Homo sapiens, UniProt Q9NQS5)
T1 construct: host or cells: HEK293, transient transfection
Experiment: Gαi biosensor BRET assay in HEK293 cells (antagonism of ZQ-16)
Format: cell-based
Conditions: for inhibition at 10 µM: HEK293, single concentration 10 μM (designated F); for IC50: HEK293 cells, antagonism of 200 nmol/L ZQ-16; for inhibition at 2 µM: HEK293, single concentration 2 μM (designated A)
Summary of the method: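 HEK293 cells transiently expressing human GPR84, Gαi2-Rluc8, GFP10-Gγ2 and Gβ1, in Tyrode's buffer pH 7.5. Compounds preincubated 5 min at 37° C, then 200 nmol/L ZQ-16 for 5 min at room temperature; coelenterazine 400A 5 μmol/L. BRET2 acceptor/donor ratio, background- and vehicle-corrected net BRET.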

T1 sequence (Q9NQS5 whole entry): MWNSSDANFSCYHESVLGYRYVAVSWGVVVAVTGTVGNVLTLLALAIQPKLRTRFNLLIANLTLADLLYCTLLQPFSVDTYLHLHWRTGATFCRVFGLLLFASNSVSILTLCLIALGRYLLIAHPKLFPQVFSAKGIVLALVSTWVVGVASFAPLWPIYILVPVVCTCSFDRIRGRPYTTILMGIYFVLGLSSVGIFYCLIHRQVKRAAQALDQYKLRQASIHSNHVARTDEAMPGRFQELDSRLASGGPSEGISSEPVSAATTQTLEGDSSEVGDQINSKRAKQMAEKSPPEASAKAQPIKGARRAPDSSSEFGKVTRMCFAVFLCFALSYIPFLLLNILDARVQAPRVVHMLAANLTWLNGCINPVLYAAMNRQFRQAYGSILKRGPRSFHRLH

Row | Compound | inhibition at 10 µM | further results
1 | Cc1cc(C#CCN2CCCCC2=O)ccc1-c1cn(CC2CCCCO2)nn1 (stereo not drawn) [Compound I-205] | 25 to 50% | –
2 | CCc1cc(C#CCOC)ccc1-c1cn(CC2OCC(C)(C)CO2)nn1 [Compound I-770] | – | IC50: ≤ 300 nM
3 | CC(C)C#Cc1ccc(-c2cn(CC3CCCCO3)nn2)cc1 (stereo not drawn) [Compound I-57] | – | inhibition at 25 µM (HEK293, single concentration 25 μM (designated I)): ≤ 25%
4 | Cc1cc(N2CCC3(CC2)CN(C)C3)ccc1-c1cn(CC2CCCCO2)nn1 (stereo not drawn) [Compound I-172] | ≤ 25% | –
5 | O=C(O)c1cc(C#CC2CC2)ccc1-c1cn(CC2CCCCO2)nn1 (stereo not drawn) [Compound I-309] | ≤ 25% | –
6 | Cc1cc(C#CC2(O)CC2)ccc1-c1cn(CC2CCCCO2)nn1 (stereo not drawn) [Compound I-215] | 50 to 75% | –
7 | CC1(C)COC(Cn2cc(-c3cn(CC4OCC(C)(C)CO4)nn3)nn2)OC1 [Compound I-827] | 50 to 75% | –
8 | Cc1cc(N2CC3(C2)CN(c2ccccn2)C3)ccc1-c1cn(CC2CCCCO2)nn1 (stereo not drawn) [Compound I-652] | ≤ 25% | –
9 | Cc1cc(N2CCN(Cc3ccccn3)C(=O)C2)ccc1-c1cn(CC2OCC(C)(C)CO2)nn1 [Compound I-752] | 25 to 50% | –
10 | Cc1ccc(C#CC2CC2)cc1-n1nc(CC2CC(F)(F)CCO2)oc1=O (stereo not drawn) [Compound I-494, 3-(5-(cyclopropylethynyl)-2-methylphenyl)-5-((4,4-difluorotetrahydro-2H-pyran-2-yl)methyl)-1,3,4-oxadiazol-2(3H)-one] | > 75% | –
11 | Cc1cc(C#CCN2CCC(F)(F)CC2)cnc1-c1cn(CC2CCCCO2)nn1 (stereo not drawn) [Compound I-250] | 50 to 75% | –
12 | CCc1c(C#CC2CC2)cccc1Cc1cn(CC2CCCCO2)nn1 (stereo not drawn) [Compound I-476] | – | inhibition at 2 µM: ≤ 25%
13 | O=c1oc(CC2CCCCO2)nn1Cc1ccc(C#CC2CC2)cc1 (stereo not drawn) [Compound I-19] | > 75% | –
14 | Cc1cc(C#CC2CC2)cnc1-c1cn(CC2OCC(C)(C)O2)nn1 (stereo not drawn) [Compound I-601] | ≤ 25% | –
15 | Cc1cc(N2CCN(Cc3ccccn3)CC2)ccc1-c1cn(CC2CC(C)(C)O2)nn1 (stereo not drawn) [Compound I-561] | > 75% | IC50: > 3000 nM
16 | Cc1cc(N2CCN(C3(c4ccccn4)CC3)CC2)ccc1-c1cn(CC2CCCCO2)nn1 (stereo not drawn) [Compound I-613] | ≤ 25% | –
17 | COc1cc(C#CC2CC2)ccc1-c1cn(CC2CCCCO2)nn1 (stereo not drawn) [Compound I-82] | 25 to 50% | IC50: > 3000 nM
18 | Cc1ccc(C#CC2CC2)cc1-c1cn(Cc2ncccn2)nn1 [Compound I-293] | – | inhibition at 2 µM: > 75%
19 | CC(C)(O)c1cc(C#CC2CC2)ccc1-c1cn(CC2CCCCO2)nn1 (stereo not drawn) [Compound I-229] | ≤ 25% | –
20 | Cc1cc(C#CC2CC(F)(F)C2)cnc1-c1cn(CC2CCCCO2)nn1 (stereo not drawn) [Compound I-648] | > 75% | –
21 | Cc1ccc(C#CC2CC2)cc1C(=O)c1cn(CC2CCCCO2)nn1 (stereo not drawn) [Compound I-591] | > 75% | IC50: 300 to 1000 nM
22 | Cc1ccc(C#CC2CC2)cc1N(C)c1cn(CC2OCC(C)(C)CO2)nn1 [Compound I-761, N-(5-(cyclopropylethynyl)-2-methylphenyl)-1-((5,5-dimethyl-1,3-dioxan-2-yl)methyl)-N-methyl-1H-1,2,3-triazol-4-amine] | – | IC50: 300 to 1000 nM
23 | FC(F)c1cc(C#CC2CC2)ccc1-c1cn(CC2CCCCO2)nn1 (stereo not drawn) [Compound I-560] | 25 to 50% | –
24 | Cc1cc(C#CCNC(=O)C(C)(C)C)ccc1-c1cn(CC2CCCCO2)nn1 (stereo not drawn) [Compound I-208] | 25 to 50% | –
25 | COC(=O)C1CCCN1CC#Cc1ccc(-c2cn(CC3CCCCO3)nn2)c(C)c1 (stereo not drawn) [Compound I-233] | 50 to 75% | –
26 | CC(C)Oc1cc(N2CC(C)(CO)C2)cnc1-c1cn(CC2CC(C)(C)CO2)nn1 (stereo not drawn) [Compound I-501] | > 75% | IC50: 1000 to 3000 nM
27 | Cc1ccc(C#CC2CC2)cc1Cc1cn(CC2CC(C)(C)CO2)nn1 (stereo not drawn) [Compound I-643] | – | inhibition at 2 µM: 50 to 75%
28 | Cc1cc(N2CC(C)(O)C2)ccc1-c1cn(CC2CCCCO2)nn1 (stereo not drawn) [Compound I-524] | ≤ 25% | –
29 | Cc1cc(C#CC2CC2)ccc1-c1cn(C[C@H]2CC[C@@H](C)O2)nn1 [Compound I-225] | 25 to 50% | –
